From US5075289A, “9-R-azacyclic erythromycin antibiotics” (priority 1988, dated 1991)
Converted amounts (≈) assume the structure as drawn. Where two headings read alike, the source gives them in different places.

Assays:
Experiment in all cases: In vitro antibacterial activity, agar dilution MIC
Assay type in all cases: cell-based
Escherichia coli DC-2 = conditions: DC2
Procedure, shortened: (§1)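 In agar dilution on Brain Heart Infusion agar, twelve successive compound dilutions were inoculated at 1:100 (1:10 for slow growers such as Streptococcus) by replicator and incubated 20–24 h at 35–37 °C. MIC is the lowest concentration giving no growth, slight haze or sparse colonies; erythromycin A was the class control.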

Escherichia coli H560 = conditions: H560
Procedure, shortened: as §1

Escherichia coli Juhl = tested on: Escherichia coli Juhl
Procedure, shortened: as §1

[1] = tested on: Haemophilus influenzae 1435; conditions: H. influenzae 1435
Procedure, shortened: as §1

[2] = tested on: Haemophilus influenzae 503B; conditions: H. influenzae 503B
Procedure, shortened: as §1

[3] = tested on: Haemophilus influenzae 566A; conditions: H. influenzae 566A
Procedure, shortened: as §1

[4] = tested on: Haemophilus influenzae 588A; conditions: H. influenzae 588A
Procedure, shortened: as §1

[5] = tested on: Micrococcus luteus ATCC 4698
Procedure, shortened: as §1

[6] = tested on: Staphylococcus aureus CMX 553; conditions: CMX553, S. aureus CMX 553, Brain Heart Infusion agar, 20-24 hours, read-out: MIC
Procedure, shortened: as §1

[7] = tested on: Streptococcus bovis A5169
Procedure, shortened: as §1

[8] = tested on: Streptococcus pyogenes 2548 INDUC; conditions: S. pyogenes 2548 INDUC, Brain Heart Infusion agar, 20-24 hours, read-out: MIC
Procedure, shortened: as §1

Row | Structure (SMILES) | MIC (Escherichia coli DC-2) [µg/mL] | MIC (Escherichia coli H560) [µg/mL] | MIC (Escherichia coli Juhl) [µg/mL] | MIC [1] [µg/mL] | MIC [2] [µg/mL] | MIC [3] [µg/mL] | MIC [4] [µg/mL] | MIC ([5]; ATCC4698, M. luteus ATCC 4698, Brain Heart Infusion agar, 20-24 hours, read-out: MIC) [µg/mL] | MIC [6] [µg/mL] | MIC ([7]; S. bovis A5169, Brain Heart Infusion agar, 20-24 hours, read-out: MIC) [µg/mL] | MIC [8] [µg/mL] | MIC ([5]; ATCC4698, read-out: MIC) [µg/mL] | MIC [7] [µg/mL]
1 | CC[C@H]1OC(=O)[C@H](C)[C@@H](O[C@H]2C[C@@](C)(OC)[C@@H](O)[C@H](C)O2)[C@H](C)[C@@H](O[C@@H]2O[C@H](C)C[C@H](N(C)C)[C@H]2O)[C@](C)(O)C[C@@H](C)[C@@H](N2CCCCC2)[C@H](C)[C@@H](O)[C@]1(C)O [Example 5] | 50 (≈ 62.3 µM) | 25 (≈ 31.1 µM) | 50 (≈ 62.3 µM) | 0.5 (≈ 0.623 µM) | 0.5 (≈ 0.623 µM) | 2 (≈ 2.49 µM) | 1 (≈ 1.25 µM) | 0.2 (≈ 0.249 µM) | 0.39 (≈ 0.486 µM) | 0.1 (≈ 0.125 µM) | 6.2 (≈ 7.72 µM) | – | –
2 | CC[C@H]1OC(=O)[C@H](C)[C@@H](O[C@H]2C[C@@](C)(OC)[C@@H](O)[C@H](C)O2)[C@H](C)[C@@H](O[C@@H]2O[C@H](C)C[C@H](N(C)C)[C@H]2O)[C@](C)(O)C[C@@H](C)[C@@H](N2CCOCC2)[C@H](C)[C@@H](O)[C@]1(C)O [Example 19] | 50 (≈ 62.1 µM) | 6.2 (≈ 7.7 µM) | 50 (≈ 62.1 µM) | 1 (≈ 1.24 µM) | 1 (≈ 1.24 µM) | 4 (≈ 4.97 µM) | 2 (≈ 2.48 µM) | – | 0.39 (≈ 0.484 µM) | – | 6.2 (≈ 7.7 µM) | 0.2 (≈ 0.248 µM) | 0.1 (≈ 0.124 µM)
